Test results reported in patent US6906179B2, “Antibody to SNIP1” (The General Hospital Corporation, priority 1999, dated 2005).
Where two headings read alike, the source gives them in different places. *1 amine or outer side, *2 acyl side, *3 side chain or, on linkers, in order; H or OH if unused. Where a SMILES comes first, the peptide text is derived from it. Bridges are numbered along the chain shown (N, C = ends). Roman numbers before positions name the chains, in order. [ ]: non-standard residue; d: D form. Actinocin(9to1) = Cc1c2oc3c(C)ccc(C(=O)[*:1])c3nc-2c(C(=O)[*:2])c(N)c1=O; NMeV = CN[C@H](C(=O)O)C(C)C; Sar = CNCC(=O)O

Legend:
SNIP-1 protein level = test: ALK3Q233D-induced degradation of SNIP-1 in transfected COS cells, Western blot; format: cell-based; settings: inhibitors added 10 hours before cell lysis; ALK3Q233D transfected COS cells
Excerpt: The novel Smad1 interactor is a nuclear proteip (termed as Smad1 Nuclear Interactor Protein 1, SNIP-1, SEQ ID No. 3), with a carboxyterminal domain that is highly homologous to the aminoterminus of the nuclear inhibitor of protein phosphatase 1 (NIPP-1) (Wang & Lechleider, unpublished) (FIG. 31A & C). NIPP-1 (VanEynde et al., 1995) is known to be rapidly processed into smaller heat-stable intermediates, a process that may be mediated by proteasome (see Discussion in Jagiello et al., 1995). SNIP-1 is a strong interactor of Smad1, that also binds to both antizyme and HsN3 in the yeast two-hybrid assays (FIG. 311B).
Forty-eight hours after transfection, COS cells were lysed in an equal volume of lysis buffer (300 ul/plate), and the total protein concentration of each sample was measured. No major difference in protein concentration was detected among the lysates. The protein level of SNIP-1 in 100 ug of total protein lysate was determined by Western blot using anti-T7 monoclonal antibody. […] Such a decrease is dependent upon the coexpression of Smad1, DPC4 and antizyme, since replacing each of these three proteins with an unrelated protein (β galactosidase) abolishes such a decrease in ALK3Q233D transfected cells (FIG. 31D, top panel, lanes 9-14). […] The total amount of proteins in the tested lanes was normalized before loading, and equal loading was confirmed by Western blot using anti-a tubulin (FIG. 31D, bottom panel).
To determine whether the decrease in the level of SNIP-1 protein level is caused by proteasome mediated degradation, we used inhibitors of the proteasome. Proteasome inhibitors that selectively block different proteolytic activities of the proteasome are powerful tools for studying the role of proteasomes in many aspects of cell growth, differentiation and apoptosis (Hilt et al., 1993; Palomebella et al., 1994; Figueiredo-Pereira et al., 1994; Thraenckner et al., 1994; Read et al., 1995; Grimm et al., 1996, for reviews, see Coux et al., 1996). […]

rat sympathetic neurons = test: OP-1 induced dendritic growth of rat sympathetic neurons; format: cell-based; settings: for inhibition of OP-1 induced dendritic growth: reversible peptidyl aldehyde inhibitors
Method: If Smad1 and DPC4 signal through proteasome mediated proteolysis, proteasome inhibitors should block the signaling of BMPs. We thus directly tested the effects of the proteasome inhibitors on the signaling pathways of BMPs that signal via Smad1 activation. […] The EC50 for the inhibitory activity of lactacystin was ˜100 nM and maximal effects were obtained with 4-6 hour pretreatments (not shown).
To determine the time course of sensitivity to lactacystin with respect to the signaling pathway of OP-1, lactacystin was added to the media at various time points after the addition of OP-1 (FIG. 32, bottom panel B).

HEF1 protein level = test: Smad3-induced proteasomal degradation of HEF1 in 293 cells; format: cell-based; settings: for Smad3-induced reduction (degradation) of HEF1 protein level: 293 cells, presence or absence of type I receptors
Excerpt: Two different forms of HEF1, p115HEF1 and p105HEF1, have been previously reported to be derived from differential phosphorylation (Law et al., 1996, Mol. Cell. Boil. 16: 3327; Minegishi et al., 1996, J. Exp. Med. 184: 1365; Lae et al., 1998, supra). Both forms of HEF1 were detected at a similar level in 293 cells after HEF1 transfection for 24 hrs (data not shown). However, p115HEF1 was the predominant form that associates with Smad3, and to a much lesser extent, with Smad1 and Smad2. Neither p115HEF1 nor p105HEF1 was detected in the immunoprecipitates of Smad4.
It was tested whether the observed reduction of HEF1 level by Smad3 is regulated by TGF-β and activin type I receptor activation and whether the reduction is mediated by proteasomal degradation. The Smad3-mediated reduction of HEF1 protein level was further enhanced in the presence of the overexpressed wildtype TGF-β type I receptor and wildtype activin type I receptor, as well as the constitutively active mutant TGF-β type I receptor (R4T204D) and the activated mutant activin type I receptor (R2T206D)). […]
Like other Smad family proteins, Smad3 can be divided into three subdomains: an amino-terminal MH1 domain, a central linker region and a carboxyl-terminal MH2 domain The N-terminal MH1 domain of Smad3 (Smad3N) has the ability to bind to specific DNA sequences (Massague, 1998, supra; Derynck et al., 1998, Cell 95: 737; Wrana, 2000, Cell 100: 189), whereas the C-terminal MH2 domain interacts with the TGF-β type I receptor as well as multiple transcriptional regulators (Massague, 1998, supra; Derynck, 1998, supra; Wrana, 2000, supra). […] In cells that were not treated with LLnL, p115HEF1 and smaller amount of p105HEF1 were detected in the immunoprecipitates of Smad3N, Smad3C and full length Smad3, with the strongest HEF1 signal detected in the immunoprecipitates of Smad3C. […] In fact, when LLnL stabilizes HEF1, the highest amount of HEF1 was detected in the immunoprecipitates of full length Smad3. […]

[1] = tested on: biological activities of BMPs and TGF-beta; test: Inhibition of the biological activities of BMPs and TGF-beta (summary statement)
[2] = tested on: calpain, cathepsin B, chymotrypsin, trypsin and papain; settings: cited from earlier work
ischemic brain injury [3] = settings: single ICV injection of 1 μg/kg at 2, 4 or 6 hour before; assessed 48 hours after injury; cited from earlier work
ischemic brain injury [4] = settings: cited from earlier work
ischemic brain injury [5] = settings: cited from earlier work; remark: listed apart in the source
endogenous HEF1 [6] = test: TGF-β regulation of endogenous HEF1 in A549 lung carcinoma cells; format: cell-based
Method: In A549 lung carcinoma cells, which predominantly express p115HEF1, a decrease of endogenous p115HEF1 was detected after 15 min exposure to TGF-β. Furthermore, LLnL was able to block the TGF-β induced decrease of endogenous HEF1, indicating the involvement of the proteasome in this event. The change of p105HEF1 in response to TGF-β was also observed, but not as apparent as p115HEF1 due to the very low level of p105HEF1 in this cell line. It was noted that the steady-state level of both p115HEF1 and p105HEF1 increased after 3 hrs of TGF-β stimulation. […] To directly test this, we performed a time-course Northern blot on HEF1 mRNA isolated from A549 cells treated with TGF-β for different time periods. […] Thus, TGF-β down-regulates HEF1 protein level via proteasomal degradation and also induces HEF1 mRNA level via transcriptional activation, which may serve as a negative feedback mechanism to restore HEF1 protein level.

proteasome = settings: LLnL versus LLM; cited from earlier work
endogenous HEF1 [7] = test: TGF-β regulation of endogenous HEF1 in H9 cells, Western blot and pulse chase; format: cell-based, human
Method: The ability of TGF-β to regulate the protein level of endogenous HEF1 in TGF-β responsive cells was tested. The human T lymphoblastoid H9 cells were either not exposed to TGF-β or pre-treated with TGF-β for different time periods. Cells were then harvested at the same time and HEF1 protein level was determined by Western blot using anti-HEF1 antibody. […] The predominant form of HEF1 labeled within the 30 min pulse period is p105HEF1. The pulse-labeled p105HEF1 was reduced to basal level within 60 min in TGF-β-stimulated cells but took more than 120 min in the absence of TGF-β. Thus, TGF-β can enhance HEF1 degradation in native H9 cells.

HEF1 mRNA = test: Induction of HEF1 mRNA in HaCaT cells; format: cell-based

CC(=O)N[C@@H](CSC(=O)[C@]1([C@@H](O)C(C)C)NC(=O)[C@H](C)[C@@H]1O)C(=O)O [lactacystin]
ALK3Q233D induced decrease of SNIP-1 protein level (SNIP-1 protein level): reversed
EC50 (rat sympathetic neurons; Sympathetic neuron, rat sympathetic neurons, read-out: EC50 for the inhibitory activity on OP-1 induced dendritic growth): ~100 nM
OP-1 induced dendritic growth (rat sympathetic neurons; added later than 3 hrs after OP-1): resistance to the inhibitory effects developed after 3 hrs and are apparent after 8 hrs
OP-1 induced dendritic growth (rat sympathetic neurons; added within 3 hrs of OP-1 exposure): fully inhibited
ability to form dendrites in the presence of OP-1 or BMP-6 (rat sympathetic neurons; pretreatment for 4 hours): concentration-dependent decrease
axonal growth or cell survival (rat sympathetic neurons; rat sympathetic neurons): did not affect
Smad3-induced reduction (degradation) of HEF1 protein level (HEF1 protein level): blocked
biological activities of BMPs and TGF-beta [1]: able to inhibit
activity of other proteases [2]: does not inhibit

TGF-β1: prototypical member of the TGFβ family of cytokines, exogenously administered
decrease in ischemic area of the neocortex (ischemic brain injury [3]): ≈ 10%
neuroprotection (ischemic brain injury [4]; 0.5 or 50 ng ICV): no neuroprotection
CA1 pyramidal cell survival (ischemic brain injury [4]; same amount (4 ng) by ICV): 48%
pyramidal cell survival (ischemic brain injury [4]; single 4 ng intrahippocampal injection 1 h prior to TFGI, assessed 7 days after): 50%
deficits in water maze learning ability and asymmetry in somatosensory functions (ischemic brain injury [5]; 10 ng ICV, first 10 days after injury): improved
intensity of microglial activation (ischemic brain injury [5]; 10 ng, 48 hours after ischemic injury): significantly reduced
neuroprotection (ischemic brain injury [5]; 2 or 50 ng on the same schedule): did not provide significant neuroprotection
area of cortical infarction (ischemic brain injury [5]; dose response): bell-shaped dose-response effect
neuroprotection in cortex, thalamus, striatum and dentate gyrus (ischemic brain injury [5]; single ICV dose of 10 ng 2 hours after ischemic injury, assessed 5 days after): significant neuroprotection
CA1-CA4 hippocampal neurons (ischemic brain injury [5]; single ICV dose of 10 ng 2 hours after ischemic injury): not protected

CSCCC(C=O)NC(=O)C(CC(C)C)NC(=O)C(CC(C)C)NC(C)=O (stereo not drawn) [LLM] (Ac-Leu-Leu-Met-aldehyde; configuration not given here)
ALK3Q233D induced decrease of SNIP-1 protein level (SNIP-1 protein level): reversed
inhibition of OP-1 induced dendritic growth (rat sympathetic neurons): Inhibition of OP-1 induced dendritic growth was also observed

Cc1c2oc3c(C)ccc(C(=O)N[C@@H]4C(=O)N[C@H](C(C)C)C(=O)N5CCC[C@H]5C(=O)N(C)CC(=O)N(C)[C@@H](C(C)C)C(=O)O[C@@H]4C)c3nc-2c(C(=O)N[C@@H]2C(=O)N[C@H](C(C)C)C(=O)N3CCC[C@H]3C(=O)N(C)CC(=O)N(C)[C@@H](C(C)C)C(=O)O[C@@H]2C)c(N)c1=O [actinomycin D, reference compound] (I: T[dV]P[Sar][NMeV] / II: T[dV]P[Sar][NMeV]; ester I:1-I:C, II:1-II:C; linker I:N-II:N via Actinocin(9to1))
increase of steady-state p115HEF1 and p105HEF1 after 3 hrs of TGF-β stimulation (endogenous HEF1 [6]): can be inhibited

N-acetyl-L-Leucinyl-L-Leucinal-L-norleucinal [LLnL]
ALK3Q233D induced decrease of SNIP-1 protein level (SNIP-1 protein level): reversed
inhibition of OP-1 activity, relative concentration (rat sympathetic neurons; LLnL versus LLM): inhibited OP-1 activity at lower concentrations than LLM
inhibition of OP-1 induced dendritic growth (rat sympathetic neurons): Inhibition of OP-1 induced dendritic growth was also observed
Smad3-induced reduction (degradation) of HEF1 protein level (HEF1 protein level): able to block
Smad3N-mediated reduction of p115HEF1 (HEF1 protein level; HEF1 co-expressed with Smad3N): blocked
TGF-β induced decrease of endogenous HEF1 (endogenous HEF1 [6]): able to block
biological activities of BMPs and TGF-beta [1]: able to inhibit
potency as inhibitor of proteasome activity (proteasome): more potent inhibitor of proteasome activity than LLM

TGF-β
exposure after which decrease of endogenous p115HEF1 was detected (endogenous HEF1 [6]): 15 min
steady-state level of p115HEF1 and p105HEF1 (endogenous HEF1 [6]; after 3 hrs of TGF-β stimulation): increased
level of HEF1 mRNA, Northern blot (endogenous HEF1 [6]; as early as 1 hr after treatment): dramatically increased
steady-state levels of p115 and p105 HEF1 (endogenous HEF1 [7]): started to decrease after 30 min exposure
time for pulse-labeled p105HEF1 to be reduced to basal level (endogenous HEF1 [7]; TGF-β-stimulated, 30 min pulse): ≤ 60 min
p105HEF1 level (endogenous HEF1 [7]; after 3 hrs of TGF-β treatment): greatly reduced
p115HEF1 level (endogenous HEF1 [7]; after 3 hrs of TGF-β treatment): almost undetectable
HEF1 mRNA (HEF1 mRNA): induction of HEF1 mRNA
